Experimental data as given in ChEMBL document CHEMBL1201862, “PubChem BioAssay data set” (2004).
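Cells were grown in 96-well plates and exposed to each compound for 48 hours at five concentrations; endpoints were interpolated linearly between bracketing concentrations, or set to the highest concentration if not reached. Here, GI50 denotes the concentration required for 50% inhibition of growth.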 Activity calls are given as the source filed them. Cut-off read from the data, not from the text of the source: active = GI50 up to about 1.1 µM and inactive = higher.

What was measured:
Test in all cases: NCI tumour cell line growth inhibition, 48 h
[1] = system: T47D
[2] = system: NCI-H23
[3] = system: KM12
[4] = system: U-251
[5] = system: UO-31
[6] = system: A549
[7] = system: OVCAR-5
[8] = system: HCC 2998
[9] = system: HCT-15
[10] = system: SF-295
[11] = system: 786-0
[12] = system: Hs-578T
[13] = system: OVCAR-3
[14] = system: RXF 393
[15] = system: NCI-H460
[16] = system: HCT-116
[17] = system: IGROV-1
[18] = system: UACC-257
[19] = system: SN12C
[20] = system: MOLT-4
[21] = system: SF-268
[22] = system: SF-539
[23] = system: MCF7
[24] = system: MDA-MB-231
[25] = system: MDA-N
[26] = system: LOX IMVI
[27] = system: A498
[28] = system: SNB-75
[29] = system: M14
[30] = system: TK-10
[31] = system: SK-OV-3
[32] = system: PC-3
[33] = system: SNB-19
[34] = system: SK-MEL-2
[35] = system: NCI/ADR-RES
[36] = system: CAKI-1
[37] = system: CCRF-CEM
[38] = system: DU-145
[39] = system: COLO 205
[40] = system: ACHN
[41] = system: SK-MEL-5
[42] = system: SK-MEL-28
[43] = system: HOP-62
[44] = system: K562
[45] = system: SW-620
[46] = system: OVCAR-8
[47] = system: OVCAR-4
[48] = system: HOP-92
[49] = system: NCI-H226
[50] = system: RPMI-8226
[51] = system: HT-29
[52] = system: EKVX
[53] = system: SR
[54] = system: Malme-3M
[55] = system: MDA-MB-435
[56] = system: UACC-62
[57] = system: HL-60
[58] = system: NCI-H522

CC(=O)OCC1OC(N2C(c3ccccc3)=CC(c3cccs3)C(C#N)=C2S)C(OC(C)=O)C(OC(C)=O)C1OC(C)=O (configuration not stated)
GI50 [1]: > 100 µM (inactive) | GI50 [2]: 5.18 µM (inactive) | GI50 [3]: > 100 µM (inactive) | GI50 [4]: 10.3 µM (inactive) | GI50 [5]: > 100 µM (inactive) | GI50 [6]: > 100 µM (inactive) | GI50 [7]: 4.92 µM (inactive) | GI50 [8]: > 100 µM (inactive) | GI50 [9]: > 100 µM | GI50 [10]: > 100 µM (inactive) | GI50 [11]: 2.55 µM (inactive) | GI50 [12]: 2.47 µM (inactive) | GI50 [13]: > 100 µM (inactive) | GI50 [14]: 3.43 µM (inactive) | GI50 [15]: > 100 µM (inactive) | GI50 [16]: 2.25 µM (inactive) | GI50 [17]: > 100 µM (inactive) | GI50 [18]: > 100 µM (inactive) | GI50 [19]: > 100 µM (inactive) | GI50 [20]: > 100 µM (inactive) | GI50 [21]: 4.49 µM (inactive) | GI50 [22]: 2.34 µM (inactive) | GI50 [23]: > 100 µM (inactive) | GI50 [24]: 6.03 µM (inactive) | GI50 [25]: > 100 µM (inactive) | GI50 [26]: > 100 µM (inactive) | GI50 [27]: 10.5 µM (inactive) | GI50 [28]: 4.43 µM (inactive) | GI50 [29]: 1.84 µM (inactive) | GI50 [30]: > 100 µM (inactive) | GI50 [31]: > 100 µM (inactive) | GI50 [32]: > 100 µM (inactive) | GI50 [33]: 47.3 µM (inactive) | GI50 [34]: > 100 µM (inactive) | GI50 [35]: > 100 µM (inactive) | GI50 [36]: > 100 µM (inactive) | GI50 [37]: > 100 µM (inactive) | GI50 [38]: > 100 µM (inactive) | GI50 [39]: > 100 µM (inactive) | GI50 [40]: > 100 µM (inactive)

O=c1c2ccccc2nc2n1CCc1c-2[nH]c2ccc(Br)cc12
GI50 [41]: 46 µM (inactive) | GI50 [2]: > 100 µM (inactive) | GI50 [42]: > 100 µM (inactive) | GI50 [6]: 43.8 µM (inactive) | GI50 [7]: > 100 µM (inactive) | GI50 [10]: 8.61 µM (inactive) | GI50 [11]: 31.8 µM (inactive) | GI50 [12]: > 100 µM (inactive) | GI50 [13]: > 100 µM (inactive) | GI50 [43]: 16.3 µM (inactive) | GI50 [44]: > 100 µM (inactive) | GI50 [15]: > 100 µM (inactive) | GI50 [16]: 48.9 µM (inactive) | GI50 [45]: 59 µM (inactive) | GI50 [17]: > 100 µM (inactive) | GI50 [18]: > 100 µM (inactive) | GI50 [20]: > 100 µM (inactive) | GI50 [46]: 11.1 µM (inactive) | GI50 [47]: 6.43 µM (inactive) | GI50 [26]: > 100 µM (inactive) | GI50 [27]: > 100 µM (inactive) | GI50 [48]: 91.2 µM (inactive) | GI50 [29]: > 100 µM (inactive) | GI50 [49]: > 100 µM (inactive) | GI50 [33]: > 100 µM (inactive) | GI50 [50]: > 100 µM (inactive) | GI50 [51]: 45.5 µM (inactive) | GI50 [35]: > 100 µM (inactive) | GI50 [52]: > 100 µM (inactive) | GI50 [53]: > 100 µM (inactive) | GI50 [37]: > 100 µM (inactive) | GI50 [38]: > 100 µM (inactive) | GI50 [54]: > 100 µM (inactive)

O=CC(O)C(O)C(O)C(O)COP(=O)(O)Cc1ccccc1 (configuration not stated)
GI50 [55]: > 10 µM (inactive) | GI50 [56]: > 10 µM (inactive) | GI50 [57]: > 10 µM (inactive) | GI50 [17]: > 10 µM (inactive) | GI50 [20]: > 10 µM (inactive) | GI50 [29]: > 10 µM (inactive) | GI50 [37]: > 10 µM (inactive) | GI50 [39]: > 10 µM (inactive) | GI50 [54]: > 10 µM (inactive)

Cc1c(Cl)c(=O)oc2cc(OCC(O)COC(C)C)ccc12 (configuration not stated)
GI50 [41]: 19.8 µM (inactive) | GI50 [1]: 69.7 µM (inactive) | GI50 [2]: > 100 µM (inactive) | GI50 [55]: 60.3 µM (inactive) | GI50 [3]: 50.5 µM (inactive) | GI50 [42]: > 100 µM (inactive) | GI50 [4]: 44.9 µM (inactive) | GI50 [5]: 40.3 µM (inactive) | GI50 [6]: 42.2 µM (inactive) | GI50 [7]: > 100 µM (inactive) | GI50 [8]: 16.8 µM (inactive) | GI50 [10]: 64.4 µM (inactive) | GI50 [11]: 39.9 µM (inactive) | GI50 [12]: 48.4 µM (inactive) | GI50 [13]: 97.5 µM (inactive) | GI50 [43]: 38.7 µM (inactive) | GI50 [58]: > 100 µM (inactive) | GI50 [44]: 23.3 µM (inactive) | GI50 [56]: 74.6 µM (inactive) | GI50 [15]: 36.1 µM (inactive) | GI50 [57]: 22.1 µM (inactive) | GI50 [16]: 43 µM (inactive) | GI50 [45]: 34.4 µM (inactive) | GI50 [17]: 65.8 µM (inactive) | GI50 [18]: 74 µM (inactive) | GI50 [20]: 27.5 µM (inactive) | GI50 [21]: 97.1 µM (inactive) | GI50 [46]: 33.7 µM (inactive) | GI50 [23]: 22 µM (inactive) | GI50 [47]: 38.9 µM (inactive) | GI50 [25]: 48.1 µM (inactive) | GI50 [26]: 35 µM (inactive) | GI50 [48]: 35 µM (inactive) | GI50 [29]: 32.2 µM (inactive) | GI50 [30]: 35.2 µM (inactive) | GI50 [31]: > 100 µM (inactive) | GI50 [32]: 43.5 µM (inactive) | GI50 [33]: > 100 µM (inactive) | GI50 [50]: 50.6 µM (inactive) | GI50 [51]: 40.2 µM (inactive) | GI50 [34]: 30.3 µM (inactive) | GI50 [35]: 75.7 µM (inactive) | GI50 [52]: 37.1 µM (inactive) | GI50 [53]: 31.9 µM (inactive) | GI50 [36]: > 10 µM (inactive) | GI50 [37]: 34.3 µM (inactive) | GI50 [38]: 99.5 µM (inactive) | GI50 [39]: 14 µM (inactive) | GI50 [40]: 44.1 µM (inactive) | GI50 [54]: 20 µM (inactive)
